Measurements reported in ChEMBL document CHEMBL3108763, “[1,2,4]triazolo[4,3-a]phthalazines: inhibitors of diverse bromodomains” (J Med Chem, 2014).

Assays:
[1] = biological target: T1, Transcription intermediary factor 1-alpha (Homo sapiens) (UniProt O15164); conditions: 50 uM
T1 sequence (whole entry): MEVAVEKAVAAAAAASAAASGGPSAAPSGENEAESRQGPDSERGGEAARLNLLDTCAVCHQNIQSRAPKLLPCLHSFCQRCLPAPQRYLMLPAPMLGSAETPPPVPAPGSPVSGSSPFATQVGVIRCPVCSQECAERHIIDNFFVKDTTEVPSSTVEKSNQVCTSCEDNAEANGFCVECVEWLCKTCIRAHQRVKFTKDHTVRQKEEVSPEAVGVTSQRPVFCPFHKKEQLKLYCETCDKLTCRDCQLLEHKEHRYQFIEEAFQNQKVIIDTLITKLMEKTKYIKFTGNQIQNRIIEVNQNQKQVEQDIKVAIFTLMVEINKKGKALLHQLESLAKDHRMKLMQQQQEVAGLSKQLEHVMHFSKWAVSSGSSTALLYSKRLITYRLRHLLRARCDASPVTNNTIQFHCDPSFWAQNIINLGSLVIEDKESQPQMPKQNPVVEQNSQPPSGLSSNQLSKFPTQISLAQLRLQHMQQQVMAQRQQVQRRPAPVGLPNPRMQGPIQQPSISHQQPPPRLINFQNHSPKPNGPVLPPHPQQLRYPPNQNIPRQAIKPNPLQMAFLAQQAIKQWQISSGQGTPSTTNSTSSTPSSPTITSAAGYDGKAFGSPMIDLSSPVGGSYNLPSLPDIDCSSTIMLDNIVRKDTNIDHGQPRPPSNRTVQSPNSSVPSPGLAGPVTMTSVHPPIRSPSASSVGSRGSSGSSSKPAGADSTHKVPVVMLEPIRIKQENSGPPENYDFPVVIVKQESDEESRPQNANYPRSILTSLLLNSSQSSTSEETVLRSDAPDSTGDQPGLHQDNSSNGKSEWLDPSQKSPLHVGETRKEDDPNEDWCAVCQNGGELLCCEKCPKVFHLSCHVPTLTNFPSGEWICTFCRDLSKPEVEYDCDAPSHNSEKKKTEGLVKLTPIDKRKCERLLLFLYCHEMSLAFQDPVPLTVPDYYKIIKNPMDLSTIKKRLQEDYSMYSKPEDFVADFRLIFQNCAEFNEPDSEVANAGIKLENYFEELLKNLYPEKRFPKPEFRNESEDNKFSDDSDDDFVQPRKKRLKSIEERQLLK

[2] = biological target: Protein polybromo-1 (Homo sapiens) (UniProt Q86U86); conditions: 100 uM
Sequence of Protein polybromo-1 (Homo sapiens) (Q86U86 whole entry, the tested form may be a part): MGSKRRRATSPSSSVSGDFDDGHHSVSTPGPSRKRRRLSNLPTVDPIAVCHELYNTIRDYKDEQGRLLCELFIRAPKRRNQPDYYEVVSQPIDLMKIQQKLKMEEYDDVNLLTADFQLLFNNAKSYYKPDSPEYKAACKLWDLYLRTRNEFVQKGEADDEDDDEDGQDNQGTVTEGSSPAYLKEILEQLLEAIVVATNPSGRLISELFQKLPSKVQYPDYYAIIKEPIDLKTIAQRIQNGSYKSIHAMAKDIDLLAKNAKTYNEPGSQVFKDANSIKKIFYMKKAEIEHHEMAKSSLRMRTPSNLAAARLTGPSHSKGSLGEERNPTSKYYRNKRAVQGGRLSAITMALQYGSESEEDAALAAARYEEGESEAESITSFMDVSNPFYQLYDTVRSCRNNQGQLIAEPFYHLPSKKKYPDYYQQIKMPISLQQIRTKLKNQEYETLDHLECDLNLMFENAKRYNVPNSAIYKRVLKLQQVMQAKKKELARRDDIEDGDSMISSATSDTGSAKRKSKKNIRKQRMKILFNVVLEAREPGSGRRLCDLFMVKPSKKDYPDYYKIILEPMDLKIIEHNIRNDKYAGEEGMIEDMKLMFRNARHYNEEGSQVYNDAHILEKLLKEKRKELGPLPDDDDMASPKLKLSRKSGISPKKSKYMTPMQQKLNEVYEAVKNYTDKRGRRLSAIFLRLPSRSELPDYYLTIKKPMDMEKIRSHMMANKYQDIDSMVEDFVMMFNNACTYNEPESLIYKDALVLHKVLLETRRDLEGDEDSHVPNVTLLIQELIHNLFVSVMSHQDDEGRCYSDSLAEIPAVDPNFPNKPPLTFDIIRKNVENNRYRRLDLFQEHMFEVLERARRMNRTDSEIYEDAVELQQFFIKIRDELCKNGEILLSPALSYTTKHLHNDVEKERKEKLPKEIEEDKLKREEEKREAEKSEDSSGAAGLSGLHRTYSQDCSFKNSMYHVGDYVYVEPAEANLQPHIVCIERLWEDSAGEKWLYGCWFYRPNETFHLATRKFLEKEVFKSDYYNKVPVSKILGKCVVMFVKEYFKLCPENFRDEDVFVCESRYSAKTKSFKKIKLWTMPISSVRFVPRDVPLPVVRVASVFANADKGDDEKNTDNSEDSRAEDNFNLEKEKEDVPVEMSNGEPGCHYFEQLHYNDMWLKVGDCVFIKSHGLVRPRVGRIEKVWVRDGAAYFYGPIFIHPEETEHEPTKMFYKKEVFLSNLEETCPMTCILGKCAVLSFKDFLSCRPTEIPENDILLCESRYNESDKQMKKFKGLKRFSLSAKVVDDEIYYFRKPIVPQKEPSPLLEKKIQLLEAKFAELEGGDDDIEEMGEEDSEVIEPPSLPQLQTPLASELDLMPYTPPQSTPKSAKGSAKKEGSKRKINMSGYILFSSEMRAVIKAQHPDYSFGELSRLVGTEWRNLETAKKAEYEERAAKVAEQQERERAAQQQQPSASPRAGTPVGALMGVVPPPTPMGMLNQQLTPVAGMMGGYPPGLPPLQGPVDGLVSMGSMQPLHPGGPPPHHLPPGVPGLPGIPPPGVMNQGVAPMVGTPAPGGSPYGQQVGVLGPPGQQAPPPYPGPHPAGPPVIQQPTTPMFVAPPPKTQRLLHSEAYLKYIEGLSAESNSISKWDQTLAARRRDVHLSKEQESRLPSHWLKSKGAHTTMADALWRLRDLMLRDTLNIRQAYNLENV

[3] = biological target: Bromodomain adjacent to zinc finger domain protein 2B (Homo sapiens) (UniProt Q9UIF8); conditions: 100 uM
Sequence of Bromodomain adjacent to zinc finger domain protein 2B (Homo sapiens) (Q9UIF8 whole entry, the tested form may be a part): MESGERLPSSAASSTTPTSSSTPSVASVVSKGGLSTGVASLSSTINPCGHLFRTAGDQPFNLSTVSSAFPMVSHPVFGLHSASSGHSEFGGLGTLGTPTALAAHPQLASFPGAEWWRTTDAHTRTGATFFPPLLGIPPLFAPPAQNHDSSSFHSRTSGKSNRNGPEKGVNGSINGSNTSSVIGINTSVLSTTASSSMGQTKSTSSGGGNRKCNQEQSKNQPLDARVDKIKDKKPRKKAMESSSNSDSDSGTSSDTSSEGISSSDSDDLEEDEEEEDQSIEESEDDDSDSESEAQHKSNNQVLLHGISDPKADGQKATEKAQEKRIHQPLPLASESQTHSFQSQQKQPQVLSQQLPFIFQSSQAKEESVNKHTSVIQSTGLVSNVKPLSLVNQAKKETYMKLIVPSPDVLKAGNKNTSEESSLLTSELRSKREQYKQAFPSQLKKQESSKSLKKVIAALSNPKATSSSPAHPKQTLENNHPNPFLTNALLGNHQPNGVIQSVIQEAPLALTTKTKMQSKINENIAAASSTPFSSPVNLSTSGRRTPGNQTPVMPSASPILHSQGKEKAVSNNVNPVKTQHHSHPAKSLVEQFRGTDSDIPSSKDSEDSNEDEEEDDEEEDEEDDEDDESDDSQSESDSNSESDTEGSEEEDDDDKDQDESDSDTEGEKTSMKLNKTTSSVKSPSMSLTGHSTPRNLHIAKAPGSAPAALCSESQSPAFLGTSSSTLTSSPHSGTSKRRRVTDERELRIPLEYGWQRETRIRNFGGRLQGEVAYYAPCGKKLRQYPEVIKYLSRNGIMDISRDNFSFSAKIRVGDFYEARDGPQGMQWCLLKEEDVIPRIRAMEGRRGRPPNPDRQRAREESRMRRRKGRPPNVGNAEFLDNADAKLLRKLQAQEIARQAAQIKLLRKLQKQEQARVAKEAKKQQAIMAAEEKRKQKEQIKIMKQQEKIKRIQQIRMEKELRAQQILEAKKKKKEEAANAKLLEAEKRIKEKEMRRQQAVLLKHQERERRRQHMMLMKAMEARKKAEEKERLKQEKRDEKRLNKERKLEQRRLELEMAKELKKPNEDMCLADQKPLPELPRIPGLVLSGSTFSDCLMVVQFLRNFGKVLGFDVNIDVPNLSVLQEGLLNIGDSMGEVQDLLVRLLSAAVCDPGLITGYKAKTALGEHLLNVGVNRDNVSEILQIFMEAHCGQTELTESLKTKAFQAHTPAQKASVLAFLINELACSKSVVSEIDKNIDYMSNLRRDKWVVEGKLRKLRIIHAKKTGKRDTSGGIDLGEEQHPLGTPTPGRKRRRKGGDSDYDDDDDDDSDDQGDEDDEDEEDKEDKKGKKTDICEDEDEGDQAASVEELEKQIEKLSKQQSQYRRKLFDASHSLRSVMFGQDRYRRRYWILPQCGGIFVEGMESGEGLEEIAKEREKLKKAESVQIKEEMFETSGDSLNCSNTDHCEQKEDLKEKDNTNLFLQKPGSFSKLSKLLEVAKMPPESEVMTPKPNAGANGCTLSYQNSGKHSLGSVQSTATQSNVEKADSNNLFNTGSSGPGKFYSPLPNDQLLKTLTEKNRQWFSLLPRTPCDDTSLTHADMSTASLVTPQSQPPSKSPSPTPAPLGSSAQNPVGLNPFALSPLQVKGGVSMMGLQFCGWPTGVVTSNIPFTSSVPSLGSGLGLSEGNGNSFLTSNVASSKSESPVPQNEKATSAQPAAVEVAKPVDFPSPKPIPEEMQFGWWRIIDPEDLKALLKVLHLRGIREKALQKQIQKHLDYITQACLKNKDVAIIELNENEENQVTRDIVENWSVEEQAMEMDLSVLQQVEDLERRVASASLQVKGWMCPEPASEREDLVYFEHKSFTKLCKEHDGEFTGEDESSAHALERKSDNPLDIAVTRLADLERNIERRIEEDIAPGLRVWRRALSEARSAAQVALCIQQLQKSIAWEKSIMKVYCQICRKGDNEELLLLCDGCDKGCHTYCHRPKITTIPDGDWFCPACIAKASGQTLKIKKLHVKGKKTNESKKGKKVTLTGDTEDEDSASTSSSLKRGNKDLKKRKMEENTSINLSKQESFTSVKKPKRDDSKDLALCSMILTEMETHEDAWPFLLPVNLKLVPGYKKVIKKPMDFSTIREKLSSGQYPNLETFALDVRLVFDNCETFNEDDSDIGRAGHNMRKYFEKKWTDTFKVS

[4] = biological target: T1, Transcription intermediary factor 1-alpha (Homo sapiens); conditions: 100 uM

Structure (SMILES): Cc1nnc2c3ccccc3c(-c3ccc(N4CCOCC4)c(NS(=O)(=O)c4ccc(Cl)cc4)c3)nn12
- inhibition [1]: < 30%

Structure (SMILES): Cc1nnc2c3ccccc3c(-c3ccc(N4CCOCC4)c(NS(C)(=O)=O)c3)nn12
- inhibition [1]: < 30%

Structure (SMILES): Cc1ccc(-c2nn3c(C)nnc3c3ccccc23)cc1NS(C)(=O)=O
- inhibition [2]: < 25%
- inhibition [3]: < 25%
- inhibition [4]: < 25%

Structure (SMILES): CCC(=O)Nc1cc(-c2nn3c(C)nnc3c3ccccc23)ccc1C
- inhibition [2]: < 25%
- inhibition [3]: < 25%
- inhibition [4]: < 25%

Structure (SMILES): CNS(=O)(=O)c1cc(-c2nn3c(C)nnc3c3ccccc23)ccc1C
- inhibition [2]: < 25%
- inhibition [3]: < 25%
- inhibition [4]: < 25%

Structure (SMILES): COc1ccc(S(=O)(=O)Nc2cc(-c3nn4c(C)nnc4c4ccccc34)ccc2N2CCN(C)CC2)cc1
- inhibition [1]: < 30%

Structure (SMILES): Cc1nnc2c3ccccc3c(-c3ccc(N4CCOCC4)c(NS(=O)(=O)c4ccccc4Cl)c3)nn12
- inhibition [1]: < 30%

Structure (SMILES): Cc1ccc(-c2nn3c(C)nnc3c3ccccc23)cc1S(=O)(=O)N(C)C
- inhibition [2]: < 25%
- inhibition [3]: < 25%
- inhibition [4]: < 25%
